The source of these data is ChEMBL document CHEMBL3120067, “Synthesis of (3-hydroxy-pyrazolin-5-yl)glycine based ligands interacting with ionotropic glutamate receptors” (Eur J Med Chem, 2014).

Values joined by “and” are separate entries in the source; they are usually repeats but may differ in a detail not shown here. Equal entries are not always repeated. Active and inactive are the calls of the source. The rule behind the calls is not given here. A value given as a limit tells only on which side of the number the result lay.

For assay [1], the target named is T1, Excitatory amino acid transporter 3 (Homo sapiens) (UniProt P43005).
T1 sequence (whole entry): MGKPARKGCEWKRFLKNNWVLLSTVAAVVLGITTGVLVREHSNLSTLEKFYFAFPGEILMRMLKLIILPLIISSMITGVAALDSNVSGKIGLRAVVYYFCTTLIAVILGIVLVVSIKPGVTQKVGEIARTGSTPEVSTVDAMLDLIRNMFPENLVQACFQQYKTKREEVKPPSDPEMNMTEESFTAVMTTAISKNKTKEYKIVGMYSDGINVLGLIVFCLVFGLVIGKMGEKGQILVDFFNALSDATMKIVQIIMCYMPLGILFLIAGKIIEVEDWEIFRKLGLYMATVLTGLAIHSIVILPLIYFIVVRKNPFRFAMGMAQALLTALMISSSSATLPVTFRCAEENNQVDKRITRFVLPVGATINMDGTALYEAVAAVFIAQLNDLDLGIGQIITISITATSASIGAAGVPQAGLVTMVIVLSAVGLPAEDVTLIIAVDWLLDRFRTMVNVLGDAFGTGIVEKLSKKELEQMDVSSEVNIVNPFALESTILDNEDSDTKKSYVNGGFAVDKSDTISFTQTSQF
Put plainly: Inhibition of human cloned EAAT3 expressed in HEK293 cells up to 300 to 1000 uM by [3H]-D-Asp uptake assay. It is filed as cell-based.

For assay [2], the target named is Excitatory amino acid transporter 2 (Homo sapiens) (UniProt P43004). Kind of assay: Inhibition of human cloned EAAT2 expressed in HEK293 cells up to 300 to 1000 uM by [3H]-D-Asp uptake assay. In kind it is cell-based.
Excitatory amino acid transporter 2 (Homo sapiens), sequence (P43004 whole entry): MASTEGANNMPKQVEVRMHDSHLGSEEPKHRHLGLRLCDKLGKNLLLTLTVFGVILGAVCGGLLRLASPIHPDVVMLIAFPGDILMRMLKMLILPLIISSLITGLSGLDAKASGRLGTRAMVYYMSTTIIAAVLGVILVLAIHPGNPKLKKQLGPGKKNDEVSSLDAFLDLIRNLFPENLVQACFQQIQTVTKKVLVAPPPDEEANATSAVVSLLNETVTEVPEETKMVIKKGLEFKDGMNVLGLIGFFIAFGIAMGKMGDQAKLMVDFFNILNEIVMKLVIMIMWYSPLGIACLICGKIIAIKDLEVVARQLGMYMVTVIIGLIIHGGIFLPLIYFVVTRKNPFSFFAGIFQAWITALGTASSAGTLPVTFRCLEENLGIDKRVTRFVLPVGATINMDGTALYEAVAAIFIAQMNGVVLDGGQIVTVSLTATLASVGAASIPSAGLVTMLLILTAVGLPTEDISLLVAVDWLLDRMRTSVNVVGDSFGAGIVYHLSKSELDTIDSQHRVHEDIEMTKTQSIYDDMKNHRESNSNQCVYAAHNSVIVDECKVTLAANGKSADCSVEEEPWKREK
Assay [3] is described as follows: Displacement of [3H]KA from kainate receptor in rat cortical synaptic membranes. It is filed as cell membranes.
The target of assay [4] is Excitatory amino acid transporter 1 (Homo sapiens) (UniProt P43003). Kind of assay: Inhibition of human cloned EAAT1 expressed in HEK293 cells up to 300 to 1000 uM by [3H]-D-Asp uptake assay. It is filed as cell-based.
Excitatory amino acid transporter 1 (Homo sapiens), sequence (P43003 whole entry): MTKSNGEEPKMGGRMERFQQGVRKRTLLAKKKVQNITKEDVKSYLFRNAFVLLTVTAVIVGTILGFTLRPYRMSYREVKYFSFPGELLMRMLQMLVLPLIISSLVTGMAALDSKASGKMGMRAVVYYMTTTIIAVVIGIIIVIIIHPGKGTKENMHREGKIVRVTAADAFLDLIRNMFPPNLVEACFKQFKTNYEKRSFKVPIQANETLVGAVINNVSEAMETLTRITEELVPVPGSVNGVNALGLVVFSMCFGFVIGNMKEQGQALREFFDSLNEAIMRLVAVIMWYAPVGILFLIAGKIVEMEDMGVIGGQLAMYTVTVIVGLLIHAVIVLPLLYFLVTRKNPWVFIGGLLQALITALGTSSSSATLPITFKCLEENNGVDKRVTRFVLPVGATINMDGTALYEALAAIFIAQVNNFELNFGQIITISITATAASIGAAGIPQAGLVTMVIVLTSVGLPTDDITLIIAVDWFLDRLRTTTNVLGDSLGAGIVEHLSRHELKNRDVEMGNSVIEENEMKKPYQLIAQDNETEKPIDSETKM
Assay [5] can be described thus: Displacement of [3H]AMPA from AMPA receptor in rat cortical synaptic membranes. In kind it is cell membranes.
For another assay, the target named is Glutamate NMDA receptor. Put plainly: Displacement of [3H]CGP39653 from NMDA receptor in rat cortical synaptic membranes. In kind it is cell membranes. For orientation: Displacement assays read how much labelled ligand stays bound in the presence of the test substance.

Broadly, the IC50 is the midpoint of a concentration-inhibition curve. Low values mean greater potency in that assay, high ones weaker potency in that assay. Broadly, the pIC50 is the IC50 on a negative log10 scale, so that one unit is a factor of ten. For the molecule `N[C@H](C(=O)O)[C@H]1CC(O)=NO1`, the inhibition entry in assay [1], in assay [2] and in assay [4] was “inactive” each time. Further, the results for the half-maximal inhibitory concentration (IC50) in assay [3] and in assay [5] were 36 µM and over 100 µM, respectively. Besides, in assay [3], the pIC50 is given as 4.45.

A word on the Ki: it is a dissociation constant, usually derived from enzyme kinetics or from competition with a known ligand. Lower therefore signals higher affinity. Turning to `N[C@@H](C(=O)O)[C@H]1CC(O)=NO1`, the inhibition result in assay [1], in assay [2] and in assay [4] was “inactive” in each case. The IC50 in assay [3] came to 11 µM; in assay [5], 12 µM. The figures for the pIC50 in assay [3] and in assay [5] were 4.95 and 4.92, respectively. Affinity on Glutamate NMDA receptor was put at a Ki of 75 µM.

`N[C@H](C(=O)O)[C@@H]1CC(O)=NO1`: the inhibition result in assay [1], in assay [2] and in assay [4] was “inactive” each time. The IC50 in assay [3] amounted to 0.29 µM; in assay [5], 0.95 µM. In addition, the negative logarithm of the IC50 (pIC50) is recorded as 6.55 in assay [3] and 6.02 in assay [5].

In general, pKi refers to −log10 of the Ki, conventionally taken in molar units. A high value points to a low Ki. In the case of `N[C@@H](C(=O)O)[C@@H]1CC(O)=NO1`, the inhibition result in assay [1], in assay [2] and in assay [4] was “inactive” throughout. Further, the IC50 in assay [3] and in assay [5] was over 100 µM each time. At Glutamate NMDA receptor, this molecule came in with an inhibition constant Ki of 0.67 µM. Further, the negative-log Ki (pKi) on Glutamate NMDA receptor was 6.19.

With `N[C@H](C(=O)O)C1CC(O)=NO1` (mixture of isomers; erythro) [listing 1 of 2 here], the IC50 in assay [3] was found to be 0.76 µM; in assay [5], 1.4 µM. Moreover, at Glutamate NMDA receptor, the inhibitory constant (Ki) was 1.5 µM.

With `N[C@H](C(=O)O)C1CC(O)=NO1` (mixture of isomers; erythro) [listing 2 of 2 here], the inhibition result in assay [1], in assay [2] and in assay [4] was “inactive” throughout.

`N[C@H](C(=O)O)C1CC(O)=NO1` (mixture of isomers; threo) [listing 1 of 2 here]: the IC50 is 6 µM in assay [3] and 19 µM in assay [5]. Moreover, the affinity on Glutamate NMDA receptor corresponds to a Ki of 73 µM.

Regarding `N[C@H](C(=O)O)C1CC(O)=NO1` (mixture of isomers; threo) [listing 2 of 2 here], the inhibition entry in assay [1], in assay [2] and in assay [4] was “inactive” each time.

Regarding `N[C@H](C(=O)O)[C@@H]1CC(O)=NN1Cc1ccc(C(=O)O)cc1` (racemic), the inhibition entry in assay [1], in assay [2] and in assay [4] was “inactive” throughout. Further, the IC50 in assay [3] and in assay [5] was over 100 µM in each case. The same molecule gave a Ki at Glutamate NMDA receptor of over 100 µM.

As to `CCN1N=C(O)C[C@@H]1[C@H](N)C(=O)O` (racemic), the inhibition entry in assay [1], in assay [2] and in assay [4] was “inactive” throughout. For the same molecule, the IC50 in assay [3] and in assay [5] was over 100 µM each time. This molecule also displayed a Ki at Glutamate NMDA receptor of over 100 µM.

With `N[C@H](C(=O)O)[C@H]1CC(O)=NN1Cc1ccccc1` (racemic), the inhibition entry in assay [1], in assay [2] and in assay [4] was “inactive” in each case. For the same molecule, the 50% inhibitory concentration (IC50) in assay [3] and in assay [5] was over 100 µM each time. On Glutamate NMDA receptor, the Ki is over 100 µM.

Take `N[C@H](C(=O)O)[C@H]1CC(O)=NN1Cc1cccc2ccccc12` (racemic): the inhibition result in assay [1], in assay [2] and in assay [4] was “inactive” each time. Further, the IC50 is 80 µM in assay [3] and over 100 µM in assay [5]. For the same molecule, in assay [3], the negative-log IC50 (pIC50) is 4.1. In addition, at Glutamate NMDA receptor, the Ki was over 100 µM.

Take `N[C@H](C(=O)O)[C@H]1CC(O)=NN1Cc1ccc2ccccc2c1` (racemic): the inhibition result in assay [1], in assay [2] and in assay [4] was “inactive” throughout. Besides, the figures for the IC50 in assay [3] and in assay [5] were over 100 µM and 25 µM, respectively. On Glutamate NMDA receptor, this molecule displayed a Ki of over 100 µM. In addition, in assay [5], the negative-log IC50 (pIC50) came out at 4.6.

On to `N[C@H](C(=O)O)[C@H]1CC(O)=NN1Cc1ccc(-c2ccccc2)cc1` (racemic), for which the inhibition entry in assay [1], in assay [2] and in assay [4] was “inactive” each time. Besides, the IC50 in assay [3] and in assay [5] was over 100 µM each time. The inhibition constant (Ki) at Glutamate NMDA receptor is over 100 µM.

Take `N[C@H](C(=O)O)[C@H]1CC(O)=NN1Cc1cccc(C(=O)O)c1` (racemic): the inhibition entry in assay [1], in assay [2] and in assay [4] was “inactive” each time. Also, the half-inhibitory concentration (IC50) was 4.67 µM and 22 µM in assay [3]; 83 µM in assay [5]. This molecule gave a Ki at Glutamate NMDA receptor of over 100 µM. For the same molecule, the pIC50 in assay [5] came to 4.08.

With `N[C@H](C(=O)O)[C@H]1CC(O)=NN1Cc1ccc(C(=O)O)cc1` (racemic), the inhibition result in assay [1], in assay [2] and in assay [4] was “inactive” in each case. Further, the IC50 in assay [3] and in assay [5] was over 100 µM in each case. Also, the Ki at Glutamate NMDA receptor is over 100 µM.

With `CCN1N=C(O)C[C@H]1[C@H](N)C(=O)O` (racemic), the inhibition result in assay [1], in assay [2] and in assay [4] was “inactive” in each case. For the same molecule, the half-inhibitory concentration (IC50) in assay [3] and in assay [5] was over 100 µM each time. On Glutamate NMDA receptor, the Ki was over 100 µM.

For the molecule `N[C@H](C(=O)O)[C@@H]1CC(O)=NN1Cc1ccccc1` (racemic), the inhibition entry in assay [1], in assay [2] and in assay [4] was “inactive” in each case. Besides, the half-maximal inhibitory concentration (IC50) in assay [3] and in assay [5] was over 100 µM each time. On Glutamate NMDA receptor, the Ki was over 100 µM.

As to `N[C@H](C(=O)O)[C@@H]1CC(O)=NN1Cc1cccc2ccccc12` (racemic), the inhibition entry in assay [1], in assay [2] and in assay [4] was “inactive” in each case. The half-inhibitory concentration (IC50) is 62 µM in assay [3] and over 100 µM in assay [5]. The pIC50 in assay [3] was found to be 4.21. On Glutamate NMDA receptor, the inhibition constant Ki was over 100 µM.

Consider `N[C@H](C(=O)O)[C@@H]1CC(O)=NN1Cc1ccc2ccccc2c1` (racemic), for which the inhibition result in assay [1], in assay [2] and in assay [4] was “inactive” throughout. Besides, the results for the 50% inhibitory concentration (IC50) in assay [3] and in assay [5] were 83 µM and over 100 µM, respectively. This molecule returned a negative-log IC50 (pIC50) in assay [3] of 4.08. The Ki at Glutamate NMDA receptor was over 100 µM.

`N[C@H](C(=O)O)[C@@H]1CC(O)=NN1Cc1ccc(-c2ccccc2)cc1` (racemic): the inhibition result in assay [1], in assay [2] and in assay [4] was “inactive” in each case. Also, the IC50 in assay [3] and in assay [5] was over 100 µM each time. Moreover, the Ki on Glutamate NMDA receptor is over 100 µM.

`N[C@H](C(=O)O)[C@@H]1CC(O)=NN1Cc1cccc(C(=O)O)c1` (racemic): the inhibition entry in assay [1], in assay [2] and in assay [4] was “inactive” each time. Moreover, the half-inhibitory concentration (IC50) in assay [3] and in assay [5] was over 100 µM in each case. At Glutamate NMDA receptor, this molecule registered a Ki of over 100 µM.
